Test results reported in a melting point compilation (Tetko et al.; mined from patent text by program, amines drawn as free bases though some values may be those of a salt).

Row | SMILES | melting point
1 | CCC(OC)C1(OC)OC12CO2 (stereo unspecified) | 68 to 70 °C
2 | CSc1ccc(NC(=O)N(O)C(C)C)cc1 | 150 °C
3 | CC(=O)N(C)c1cccc(-c2ccnc3c(C(=O)c4cccs4)cnn23)c1 | 190 to 192 °C
4 | CNC(=O)c1ccncc1I | 132 to 133 °C
5 | COC(=O)c1cc(C(=O)c2c(C)c(-c3cccc(OCC(=O)OC(C)(C)C)c3)c3ccccn23)ccc1N | 81 °C
6 | Cc1ccccc1-c1nccc2c(CC#N)cccc12 | 120 °C
7 | CC(CCC(=O)O)c1ccc(OCc2ccccc2C(=O)O)cc1 (stereo unspecified) | 104 to 106 °C
8 | COc1ccc(CNC(=O)c2cc(C)sc2N)cc1OC | 175 °C
9 | CNc1ccc2[nH]ncc2c1 | 144 to 146 °C
10 | CS(=O)(=O)Nc1ccc(O)cn1 | 246 to 247 °C
11 | N#Cc1cccc(C2=Nc3ccc(C=Cc4ccccc4)cc3NC(=O)C2)c1 | 185 to 188 °C
12 | O=S(=O)(Nc1ccccc1O)c1ccc(Cl)cc1 | 82 °C
13 | COc1cccc(N(CC(=O)N(C)c2ccccc2)C(=O)CN2C(=O)c3ccccc3C2=O)c1 | 137 °C
14 | O=C(O)CC(=O)NCc1cc(Br)cc2[nH]c(=O)c(=O)[nH]c12 | > 300 °C
15 | Fc1cc(Br)c2ncccc2c1 | 75 to 78 °C
16 | COc1ccc(OCC(O)COc2cccc3oc(C(=O)O)cc(=O)c23)cc1 (stereo unspecified) | 125 to 126 °C
17 | CCCCCS(=O)(=O)NC(=O)/C=C/c1ccc(OCCOC)cc1OCc1ccc(Cl)cc1Cl | 138 °C
18 | O=C(Nc1ccccc1)OCC#Cc1cc(F)c2ncc(C(=O)NCc3ccc(Cl)cc3)c(O)c2c1 | 227 to 229 °C
19 | CCCN(CCC)C(=O)c1cc(C(=O)O)cc(-c2ncco2)c1 | 131 to 133 °C
20 | COc1ccc(C=CC(=O)Nc2ccccc2C(=O)O)cc1O | 215 to 216 °C

Row | SMILES | melting point
21 | CN(C)CCCCC(=O)c1ccc2c(c1)Cc1cc(C(=O)CCCCN(C)C)ccc1-2 | 124 to 126 °C
22 | COC(=O)c1c(S(C)(=O)=O)ccc(C(=O)O)c1Cl | 160 to 162 °C
23 | CCC(c1cccc(Br)c1)c1c(O)c2ccccc2oc1=O (stereo unspecified) | 168 to 172 °C
24 | O=C(Nc1ccc(-n2nc(C(F)(F)F)cc2C(F)(F)F)cc1)c1cccc(Cl)c1F | 113 to 116 °C
25 | FC(F)(F)C(=Cc1ccccc1)c1ccc(Cl)cc1 | 63 to 66 °C
26 | CCN(CC)C(=O)COc1nc2cc(OC)cc(OC)c2cc1-c1ccc(OC)cc1 | 146 to 147 °C
27 | CCOCCNC(=O)C(c1ccccc1)c1ccccc1 | 83.5 to 86.2 °C
28 | COc1ccccc1C1(O[Si](C)(C)C)C(=O)Nc2cc(C)c(Cl)cc21 (stereo unspecified) | 227 °C
29 | CCOC(=O)CN(C)S(=O)(=O)c1c(C(=O)OC)sc2cc(C)ccc12 | 86 to 87 °C
30 | CNC(=O)c1ccc(C(=O)Nc2cccc(C3=NC(C)(C)Cc4cc(OC)c5c(c43)CC(C)(C)O5)c2)cc1 | 310 to 312 °C
31 | Cc1ncsc1C(O)c1cccc(N(C)C)c1 (stereo unspecified) | 135 to 138 °C
32 | CC(=Cc1cccc(O)c1)[N+](=O)[O-] | 96 to 98 °C
33 | CSc1c(C(Cc2ccc(Cl)cc2)C(=O)O)ccc2c3ccccc3n(Cc3ccc(Cl)cc3)c12 (stereo unspecified) | 104 to 107 °C
34 | CC(C)(C)c1cc(/C=C/C(=O)COc2ccccc2)cc(C(C)(C)C)c1O | 100 to 102 °C
35 | COC(=O)C1=C(C)NC(C)=C(C(=O)OCCc2cc(C)[nH]c2C)C1c1cccc([N+](=O)[O-])c1 (stereo unspecified) | 156 to 160 °C
36 | Cc1cccc([N+](=O)[O-])c1C=NO | 190 to 192 °C
37 | CC(C)(S)CN(Cc1ccccc1)C(=O)CCC(=O)O | 123 to 126 °C
38 | CSC(NCc1ccc(N)cc1)=C(C#N)C#N | 100 to 102 °C
39 | C[C@@H]1C(=O)C[C@H]2C[C@@H]1OO[C@@]2(C)/C=C\c1ccc(Cl)cc1 | 90 °C
40 | CN(C)C=CC(=O)c1ccccc1[N+](=O)[O-] | 118 to 121 °C

Now from value to molecule:

Row | melting point | SMILES
41 | 205 to 207 °C | Cc1ccc(C2=Cc3cc(C(=O)N[C@H]4CC[C@H](CN(C)C5CCOCC5)CC4)ccc3OC2)cc1
42 | 95.1 °C | CCN(CC)C(=O)OCC1CN(C(=O)c2cc(OC)c(OC)c(OC)c2)CCN1C(=O)c1cc(OC)c(OC)c(OC)c1 (stereo unspecified)
43 | 198 to 200 °C | O=C1CCC(Nc2ncnc3c2ncn3C2OC(CO)C(O)C2O)N1 (stereo unspecified)
44 | 154 to 155 °C | CC(=NOCc1ccc(Cl)s1)C1=C(O)CC(C2CCCSC2)CC1=O (stereo unspecified)
45 | 121 to 122 °C | O=C1CCCN1c1c([N+](=O)[O-])cc(C(F)(F)F)c(Cl)c1[N+](=O)[O-]
46 | 269 to 270 °C | CN1C(=O)CC[C@]2(C)c3ccc(NC(=O)c4ccc([N+](=O)[O-])cc4)cc3CC[C@@H]12
47 | 122 to 126 °C | ON=C(Cc1ccccc1)c1cccnc1
48 | 248 to 250 °C | O=C1c2ccccc2C(=O)N1Cc1noc(-c2ncn3c2[C@@H]2CCCN2C(=O)c2sccc2-3)n1
49 | 147 °C | CCNC1c2cc(S(N)(=O)=O)oc2SCC1(C)C (stereo unspecified)
50 | 75 to 79 °C | O=S(=O)(NC=NCCCOc1cccc(CN2CCCCC2)c1)c1ccc(Cl)cc1
51 | 140 to 142 °C | C[C@]1(CN2CCN(C(=O)OCc3ccc(C(F)(F)F)cc3)CC2)Cn2cc([N+](=O)[O-])nc2O1
52 | 126 to 128 °C | CCCn1cc(S(C)=O)c(=O)c2ccccc21 (stereo unspecified)
53 | 203 to 206 °C | CCNc1cccnc1N1CCN(Cc2cc(C)c(O)c(C)c2)CC1
54 | 208 to 209 °C | NC(=O)NN=Cc1ccc(OC2CCOCC2)cc1
55 | 211 to 212 °C | O=c1c2cc(CBr)ccc2oc2ncccc12
56 | 152 to 155 °C | CN(C(=O)/C=C/c1ccco1)c1ccc(S(=O)(=O)NC2CCCCCC2)cc1
57 | 90 to 95 °C | COc1cc(-c2oc3ccccc3c(=O)c2C(=O)N2CCN(c3ccccn3)CC2)cc(OC)c1OC
58 | 228 to 229 °C | O=c1c2cccnc2n(-c2cccc([N+](=O)[O-])c2)c(=O)n1CC(F)(F)F
59 | 101 to 104 °C | ClCc1nnnn1C1CCCCC1
60 | 126 to 131 °C | CCCCNC(=O)NS(=O)(=O)c1cscc1C
61 | 80.5 to 81 °C | Cc1cc(-c2ccccc2)c(=O)n2c1-c1sccc1CC2

Row | melting point | SMILES
62 | 240 to 242 °C | O=C1NCCN(c2ccc(OC(F)(F)C(F)F)cc2)C1=O
63 | 189 to 190 °C | COCCn1nc2c(N)nc3ccccc3c2c1CC1CCOCC1
64 | 198 to 200 °C | CC(=O)NC[C@H]1CN(c2cc(F)c(N3CCC(n4nnc(N5CCN(C#N)CC5)n4)CC3)c(F)c2)C(=O)O1
65 | > 250 °C | CCn1nc(-c2nc(C(N)=O)c(N)nc2-c2ccccc2)ccc1=O
66 | 118 to 121 °C | O=C(O)c1c2c(nc3ccc(F)cc13)-c1ccc(C3CCCCC3)cc1CC2
67 | 124 to 128 °C | COc1cc(OC)c(N2CCCC2)cc1/C=C/C(=O)c1ccc(S(=O)(=O)Nc2ccccn2)cc1
68 | 106 to 109 °C | CCC(CC)Oc1cc(C)nc(Oc2c(C)cc(C)cc2C)c1[N+](=O)[O-]
69 | 180 °C | O=C(Cn1c(=O)sc2ccc(Cl)cc21)N1CCC(O)CC1
70 | 212 to 214 °C | CC1CCc2c(F)c(F)cc3c(=O)[nH]c(=O)n1c23 (stereo unspecified)
71 | 87 to 88 °C | COc1ccc(CN2CCCc3cc(OCc4ccccc4)c(OC)cc3C2)cc1
72 | 91 to 97 °C | CC1CN(Cn2cc(C#N)c(-c3cccc(Cl)c3Cl)c2)CC(C)O1 (stereo unspecified)
73 | 167 to 169 °C | CCC(C)C(CO)NC(=O)CC(O)C(CC(C)C)NC(=O)C(Cc1cscn1)NC(=O)C(Cc1cccc2ccccc12)NC(=O)OCc1ccccc1 (mixture of isomers)
74 | 105 to 109 °C | O=C1COCC(c2ccccc2)N1C(=O)Oc1ccc([N+](=O)[O-])cc1 (stereo unspecified)
75 | 263 to 267 °C | COc1ccc2c(c1)c(-c1cc3nccnc3[nH]1)cn2CC(=O)N1CCOCC1
76 | 112 to 116 °C | CCCc1c(CS(=O)Cc2ccc(-c3nnn[nH]3)cc2)ccc(C(C)=O)c1O (stereo unspecified)
77 | 186 °C | O=C(O)Cc1cc(C(=O)c2cccc(Cl)c2)ccc1O
78 | 163 °C | COc1cc(-c2nc3cnc(OC[C@H](C)NC(C)=O)cc3o2)cc(F)c1OCC1CC1
79 | 141 to 143 °C | CC(=S)NC[C@H]1CN(c2ccc(N3CCC4(CC3)OCCO4)c(F)c2)C(=O)O1
80 | 160 to 161 °C | CC(C)OC(=O)c1ccc(Nc2cccc(N3CCCCC3)c2)c([N+](=O)[O-])c1
81 | 201 to 205 °C | COC(=O)CCc1ccc2c(c1)nc(N)c1ncn(CC(C)(C)O)c12
82 | 192 to 195 °C | CC1CN(c2nc(N)nc(-c3cc(Cl)ccc3Cl)n2)CC(C)O1 (stereo unspecified)

Row | melting point | SMILES
83 | 63 to 64 °C | Cc1cccc(Nc2ccccc2C(=O)OCc2ccccn2)c1C
84 | 98 to 101 °C | FC(F)(F)c1ccc(-c2ccc(Cl)nc2)cc1
85 | 252 °C | Clc1cccc(CNc2ncnc3nc[nH]c23)c1
86 | 67 to 74 °C | CCCc1c(CSc2nnc(SCCCCCC(=O)O)s2)ccc(C(C)=O)c1O
87 | 189 to 192 °C | Clc1ccc(-c2nc3n(c2-c2ccc(Cl)cc2)CCC3)cc1
88 | 197 to 198 °C | Nc1nc(Cl)c2cnn(Cc3ccccc3F)c2n1
89 | 70.2 to 74.3 °C | FCc1cccc(C#CCCc2ccc3ccccc3n2)n1
90 | 168 to 170 °C | Cc1cccc(NC(=O)CN2CCN(c3ccccc3C#N)CC2)c1
91 | 119 to 122 °C | CSc1ncc(C#N)c(NC2CCCC2)n1
92 | 245 to 248 °C | N#Cc1cccc(-c2ccc(=O)n(Cc3cccc(-c4ncc(O)cn4)c3)n2)c1
93 | 193 °C | Nc1nc2cccnc2n1Cc1ccco1
94 | 242 to 244 °C | O=S1(=O)NC(Cl)=Nc2ccc(Cl)cc21
95 | 176 to 178 °C | Cc1cc2nc(-c3cccnc3N)n(-c3ccc(CC(=O)Nc4ccc5ncccc5c4)cc3)c2nc1-c1cccnc1
96 | 186 to 188 °C | Cc1ccc(-c2ccc(Cl)cc2)cc1C1C(=O)COC(C)(C)C1=O (stereo unspecified)
97 | 157 to 158 °C | O=C(O)/C=C/c1ccc(OCCC2OCCO2)cc1Oc1ncc(C(F)(F)F)cc1Cl
98 | 218 to 220 °C | CC(=O)c1ccc(-n2c(-c3sc(Nc4ccc(Cl)cc4)nc3-c3ccccc3)nc3ccccc3c2=O)cc1
99 | 109 to 110 °C | CCC1(CCCCN2CCN(c3ccc(OC)cc3)CC2)C(=O)Nc2ccccc21 (stereo unspecified)
100 | 104 to 106 °C | CCCCC1(C(=O)Nc2ccc(Oc3ccc(Cl)cc3)c(C(F)(F)F)c2)CC1
101 | 86 to 89 °C | CC(C)c1csc(/C=C/c2cc([N+](=O)[O-])ccc2Cl)n1
